Test results: publication PMC11354745, “Discovery of Novel Amino Acids (Analogues)-Substituted Thiophene[3,2-d]pyrimidine Derivatives as Potent HIV-1 Non-Nucleoside Reverse Transcriptase Inhibitors: Design, Synthesis, and Biological Evaluation” (International Journal of Molecular Sciences, 2024)
Like-named read-outs stand apart in the source and are kept apart here.

Columns and labels:
[1] = tested on: HIV-1 Y181C mutant strain; experiment: Anti-HIV activity in MT-4 cells (MTT method), Y181C; format: cell-based; details: Human immunodeficiency virus 1, MT4, read-out: EC50 Y181C
From the text: (§1) All the target compounds were first evaluated for their antiviral activity against HIV-1 wild-type (WT) strain (IIIB) and the double-mutant strain K103N+Y181C (RES056) in the MT-4 cell line, using the MTT method. The potent inhibitors were selected to assess their efficacy against other strains resistant to NNRTIs, including L100I, K103N, Y181C, Y188L, E138K and the double-mutant strain F227L+V106A. The approved drugs NVP, EFV and ETR were selected as reference drugs. The biological evaluation results of the test compounds, presented as EC50 (anti-HIV potency), CC50 (cytotoxicity) and SI (selectivity index, CC50/EC50 ratio), are summarized in Table 1 and Table 2.
(§2) The antiviral potential and cytotoxic effects of the target compounds were assessed using the MTT assay in MT-4 cells, following established protocols. The HIV-1 (IIIB) strain, single mutant strains (L100I, K103N, Y181C, Y188L and E138K), double mutant strains (F227L + V106A and K103N + Y181C) and MT-4 cells were provided by the Rega Institute of Medicine at the University of Leuven, Belgium. These viral strains were propagated in MT-4 cells. The MT-4 cells were cultured in RPMI-1640 medium supplemented with 20 mM HEPES buffer (Life Technologies, Grand Island, NY, USA), 10% (v/v) heat-inactivated fetal calf serum (FCS), 2 mM L-glutamine, 0.1% sodium bicarbonate, and 20 μg/mL gentamicin. Cultures were maintained at 37 °C in a 5% CO2 atmosphere. The specific experimental procedures are detailed below.
(§3) Initially, concentrated solutions of the test compounds were prepared at 10-fold the final desired concentration and added to triplicate wells in 25 µL aliquots to assess their impacts on both mock and HIV-infected MT-4 cells. Using a Biomek 3000 robot, these were diluted in a 96-well flat-bottomed microplate by mixing with medium, creating a series of 5-fold steps down in concentration. Each test included control groups of untreated infected and mock-infected cells to establish baselines for comparison. We introduced HIV-1 strains, both wild-type (IIIB) and drug-resistant variants harboring mutations L100I, K103N, Y181C, Y188L, E138K and F227L + V106A and the double mutant K103N + Y181C (RES056), at concentrations of 100–300 CCID50, into their respective wells. These strains served to mimic both typical and resistant infections. Additionally, mock-infected wells received an equal volume of culture medium to assess the compounds’ impacts on uninfected cells, thereby determining cytotoxicity. MT-4 cells in the exponential growth phase were pelleted by centrifugation at 1000 rpm for 5 min, after which the supernatant was removed. The cells were resuspended to a density of 6 × 10^5 cells/mL, and 50 µL of this suspension was added to each well. Post-infection, on the fifth day, cell viability in both mock and infected conditions was measured via the MTT assay using a spectrophotometer. The CC50 was identified as the concentration of the compound that caused a 50% reduction in the viability of the mock-infected cells, indicating cytotoxicity. Conversely, the EC50 represented the concentration that provided 50% protection against viral cytopathic effects in infected cells, signifying antiviral potency.

[2] = biological target: T1, WT HIV-1 RT (Human immunodeficiency virus type 1 group M subtype B, UniProt P03366); experiment: HIV-1 RT inhibition assay (Roche kit, ELISA); format: biochemical
T1 construct: viral nucleotides (dNTPs) and the HIV-1 RT enzyme in an incubation buffer; purchased Roche
From the text: An assay kit for HIV-1 reverse transcriptase (RT) from Roche was utilized to assess RT inhibition. The kit provided all necessary components for the RT reaction, and the enzyme-linked immunosorbent assay (ELISA) methodology for the inhibition assay was executed according to the kit’s instructions. […] Unbound dNTPs were washed away, and an anti-[…] (DIG)-POD working solution was introduced. […] Excess anti-DIG-POD was removed, and a peroxidase substrate (ABTS) solution was applied to the MTPs. […] The percentage of the inhibitory activity of the RT inhibitors was calculated by formula, as given below:
% Inhibition = [O.D. value with RT but without inhibitors − O.D. value with RT and inhibitors]/[O.D. value with RT […] − O.D. value without RT and inhibitors].

[3] = tested on: HIV-1 K103N mutant strain; experiment: Anti-HIV activity in MT-4 cells (MTT method), K103N; format: cell-based; details: Human immunodeficiency virus 1, MT4, read-out: EC50 K103N
From the text: as §1, §2, §3

[4] = tested on: HIV-1 double-mutant strain F227L+V106A; experiment: Anti-HIV activity in MT-4 cells (MTT method), F227L+V106A; format: cell-based; details: Human immunodeficiency virus 1, MT4, read-out: EC50 F227L/V106A
From the text: as §1, §2, §3

[5] = Cytotoxicity in mock-infected MT-4 cells (MTT method); format: cell-based; details: human, CC50
Procedure: as §2, §3

[6] = tested on: HIV-1 E138K mutant strain; experiment: Anti-HIV activity in MT-4 cells (MTT method), E138K; format: cell-based; details: for EC50: Human immunodeficiency virus 1, MT4, read-out: EC50 E138K
From the text: as §1, §2, §3

[7] = tested on: HIV-1 wild-type (WT) strain (IIIB); experiment: Anti-HIV activity in MT-4 cells (MTT method), HIV-1 IIIB; format: cell-based; details: for EC50: Human immunodeficiency virus 1, IIIB, MT4, read-out: EC50 IIIB; for SI IIIB: selectivity index, ratio CC50/EC50, IIIB
Procedure: (§4) All the target compounds were first evaluated for their antiviral activity against HIV-1 wild-type (WT) strain (IIIB) and the double-mutant strain K103N+Y181C (RES056) in the MT-4 cell line, using the MTT method.
(§5) The antiviral potential and cytotoxic effects of the target compounds were assessed using the MTT assay in MT-4 cells, following established protocols. The HIV-1 (IIIB) strain, single mutant strains (L100I, K103N, Y181C, Y188L and E138K), double mutant strains (F227L + V106A and K103N + Y181C) and MT-4 cells were provided by the Rega Institute of Medicine at the University of Leuven, Belgium. These viral strains were propagated in MT-4 cells. […] The specific experimental procedures are detailed below.
as §3, with “We introduced HIV-1 strains, both wild-type (IIIB) and drug-resistant variants harboring mutations L100I, K103N, Y181C, Y188L, E138K and F227L + V106A and the double mutant K103N + Y181C (RES056), at concentrations of 100–300 CCID50, into their respective wells.” left out, “spectrophotometer.” for “spectrophotometer. The CC50 was identified as the concentration of the compound that caused a 50% reduction in the viability of the mock-infected cells, indicating cytotoxicity. Conversely, the EC50 represented the concentration that provided 50% protection against viral cytopathic effects in infected cells, signifying antiviral potency.”

[8] = tested on: HIV-1 L100I mutant strain; experiment: Anti-HIV activity in MT-4 cells (MTT method), L100I; format: cell-based; details: Human immunodeficiency virus 1, MT4, read-out: EC50 L100I
From the text: as §1, §2, §3

[9] = tested on: HIV-1 Y188L mutant strain; experiment: Anti-HIV activity in MT-4 cells (MTT method), Y188L; format: cell-based; details: Human immunodeficiency virus 1, MT4, read-out: EC50 Y188L
From the text: as §1, §2, §3

[10] = tested on: HIV-1 double-mutant strain K103N+Y181C (RES056); experiment: microbe, parasite or virus in culture; format: cell-based; details: for EC50: Human immunodeficiency virus 1, MT4, read-out: EC50 RES056; for SI RES056: selectivity index, ratio CC50/EC50, RES056
Procedure: as §4, §5
as §3, with “We introduced HIV-1 strains, both wild-type (IIIB) and drug-resistant variants harboring mutations L100I, K103N, Y181C, Y188L, E138K and F227L + V106A and the double mutant K103N + Y181C (RES056), at concentrations of 100–300 CCID50, into their respective wells.” left out, “spectrophotometer.” for “spectrophotometer. The CC50 was identified as the concentration of the compound that caused a 50% reduction in the viability of the mock-infected cells, indicating cytotoxicity. Conversely, the EC50 represented the concentration that provided 50% protection against viral cytopathic effects in infected cells, signifying antiviral potency.”

[11] = tested on: MT-4 cells; experiment: Cytotoxicity in mock-infected MT-4 cells (MTT method); format: cell-based; details: human, 5 days
Procedure: as §2, §3

[12] = tested on: HIV-1 wild-type (WT) and a panel of NNRTI-resistant strains; experiment: Anti-HIV activity in MT-4 cells (MTT method), WT and panel of NNRTI-resistant strains; format: cell-based
From the text: as §1
The antiviral potential and cytotoxic effects of the target compounds were assessed using the MTT assay in MT-4 cells, following established protocols. […]
Initially, concentrated solutions of the test compounds were prepared at 10-fold the final desired concentration and added to triplicate wells in 25 µL aliquots to assess their impacts on both mock and HIV-infected MT-4 cells. […] Post-infection, on the fifth day, cell viability in both mock and infected conditions was measured via the MTT assay using a spectrophotometer. […]

SMILES	EC50 [1]	IC50 [2]	EC50 [3]	melting point	EC50 [4]	CC50 at 5 days [5]	EC50 [6]	EC50 [7]	SI IIIB [7]	EC50 [8]	EC50 [9]	EC50 [10]	SI RES056 [10]	CC50 [11]	EC50 ([12]; Human immunodeficiency virus 1, MT4, read-out: EC50 values against HIV-1 WT and a panel of NNRTI-resistant strains, range over strains, MT-4 cells)	EC50 ([12]; read-out: EC50 values against HIV-1 WT and a panel of NNRTI-resistant strains, range over strains, MT-4 cells)	fold superior to NVP, E138K ([6]; ratio of EC50 values against E138K, versus NVP)
Cc1cc(C#N)cc(C)c1Oc1nc(Nc2ccc(NC(=O)[C@@H](N)Cc3ccccc3)cc2)nc2ccsc12 [5h]	2.72 ± 0.422 µM	1.54 ± 0.119 µM	0.073 ± 0.016 µM	203 to 206 °C	2.11 ± 0.293 µM	23.7 ± 0.521 µM	0.679 ± 0.569 µM	0.055 ± 0.012 µM	429	1.83 ± 0.208 µM	2.39 ± 0.352 µM	8.47 ± 0.483 µM	3	–	–	–	–
Cc1cc(C#N)cc(C)c1Oc1nc(Nc2ccc(NC(=O)[C@@H](N)Cc3c[nH]cn3)cc2)nc2ccsc12 [5e]	2.58 ± 0.477 µM	0.927 ± 0.064 µM	0.035 ± 0.009 µM	158 to 160 °C	1.47 ± 0.979 µM	25.1 ± 2.3 µM	0.26 ± 0.075 µM	0.052 ± 0.022 µM	484	0.902 ± 0.311 µM	2.26 ± 0.733 µM	≥ 4.88 µM	≤5	–	–	–	–
Cc1cc(C#N)cc(C)c1Oc1nc(Nc2ccc(NC(=O)C3CCCN3)cc2)nc2ccsc12 (stereo not shown) [5k]	1.85 ± 0.621 µM	1.12 ± 0.074 µM	0.031 ± 0.004 µM	227 to 230 °C	1.76 ± 0.686 µM	27.9 µM	0.094 ± 0.022 µM	0.054 ± 0.018 µM	513	0.601 ± 0.261 µM	2.35 ± 0.057 µM	7.53 ± 0.28 µM	4	27.9 ± 0.91 µM	0.042 to 7.53 µM	0.031 to 2.35 µM	~1.9 fold
